The values below are quoted from earlier work in patent US20250177336A1 (RX BANDZ, INC., priority 2023, published 2025).

For the data set the following is noted: zwitterionic form predominates.

Take `NC[C@H]1CC[C@H](C(=O)O)CC1` [TXA, Tranexamic acid]: the isoelectric point is reported as ~7.3 pH.
